For one data set, the system named is C. albicans. Description: Checkerboard interaction with conventional antifungals (FICI), C. albicans. The class given is cell-based, Candida albicans. As to conditions: for FICI: 405-nm light. The method, then: A modified checkerboard assay was used to study the interaction of visible-light-activated MMs with conventional antifungals in C. albicans. […] The type of interaction between MMs and conventional antifungals was assessed by calculating the fractional inhibitory concentration index (FICI), with a FICI of ≤0.5, 0.5<x≤4, or >4, denoting synergistic, additive, or antagonistic interactions, respectively (Odds, 2003).
The interaction of MMs with conventional antifungal agents in C. albicans was investigated by determining the MIC of different antifungals alone and after treatment with visible-light-activated MMs using a modified broth microdilution checkerboard assay (Cantón et al., 2005) in an 8×8-well configuration. […] The fractional inhibitory concentration index (FICI) was determined as the sum of the MIC of the MM and the antifungal drug when used in combination divided by their MIC when used alone. An FICI index of ≤0.5, 0.5<x≤4, or >4 indicates synergistic, additive, and antagonistic interactions, respectively (Odds, 2003).

Data set [1] relates to C. albicans mitochondria and plasma membrane. In words: Colocalization analysis by confocal microscopy. The class given is cell-based, Candida albicans. As to conditions: no light. The method, then:
Colocalization analysis of MMs was performed as previously described (Benhamou et al., 2018; Vida and Emr, 1995) with modifications. A single isolated colony was picked from 24-h SDAE plates, diluted in liquid YPD, and grown at 30 ° C for 24 h. Cells were then re-diluted in fresh YPD medium and grown statically in Ibidi u-dishes (Ibidi GmbH, Munich, Germany) for 24 h at 30 ° C The cells were washed, and then YPD medium containing 8 μM MM 1 and 10 nM MitoTracker™ Green (Thermo Fisher Scientific, MA, USA) was added. After a 30-min dark incubation at 30 ° C, the solution was replaced with fresh medium containing 40 nM FM™ 4-64 (Thermo Fisher Scientific, MA, USA). Cells were immediately imaged in a Nikon Al—RSI confocal system mounted on a Nikon Ti-E widefield fluorescence microscope (Nikon Corporation, NY, USA). Cells were imaged directly on the Ibidi imaging dish using a 60×water immersion objective (numerical aperture of 1.27, 0.17 mm working distance). Colocalization was calculated in the Fiji version of ImageJ using the Colocalization Threshold tool and the Coloc-2 plugin.

Data set [2] in a line: Photodegradation of MMs by 1H NMR. As to conditions: 5 min, 146 mW cm^−2 405 nm, DMSO-d6. The class given is physicochemical.
Method: Aromatic region of ^1H NMR (600 MHz) spectra of MM 1 (300 mM in DMSO-d6) before and after irradiation for 5 min with 146 mW cm^−2 of 405 nm light.
Data set [3] in a line: Singlet oxygen generation (DPBF). As to conditions: irradiated. The source says:
Percentage of DCFH-DA-(FIG. 45E) and APF-(FIG. 45F) positive cells, as detected using flow cytometry. UV-VIS spectra of the singlet oxygen trap DPBF in the presence of the fast antibacterial motor MM 1 (FIG. 45G) or the inert slow motor ARV 3-202 (FIG. 45H). (FIG. 451) Rate of decrease of the absorption of DPBF at 410 nm, indicative of singlet oxygen generation, in the presence of MM 1 or its slow analog ARV 3-202. […] Flow cytometry data (at least 10 000 cells) was acquired in a spectral analyzer (Sony SA3800) and analyzed using FlowJo software. Results are shown as the mean of at least 3 biological replicas±standard error of the mean. Comparisons between samples were performed in GraphPad Prism 8 using a Kruskal-Wallis test for comparison between three or more samples or an unpaired t-test for comparisons between two samples. * p<0.05. not significant=n.s.

For a further data set, the system named is superoxide dismutase. Description: Superoxide dismutase (SOD) activity. As to conditions: 0.5×MIC, p<0.05. The class given is cell-based, Candida albicans. The method, then: Superoxide dismutase (SOD) activity was determined using a Superoxide Dismutase Assay Kit (Caymanchem, MI, USA) per the distributor's instructions. Lipid peroxidation was determined using a TBARS assay kit (TCA method) (Caymanchem, MI, USA) per the distributor's instructions. SOD activity and MDA levels were normalized by protein content determined by the Pierce assay (Pierce™ BCA Protein Assay Kit, Thermo Fisher Scientific, MA, USA).

The test system of the next data set is E. cloacae. In words: MIC, E. cloacae. The class given is cell-based. As to conditions: Enterobacter cloacae, read-out: MIC of MM. The method, then:
The appropriate volume of an MM stock at 8 mM necessary to achieve a concentration ranging from 0.3125 to 40 μM was pipetted into a 2 mL microcentrifuge tube to which 1 mL of cell suspension prepared as previously described was added. Corresponding negative controls (DMSO only) were prepared in the same way. The mixture was gently mixed by pipetting and incubated in the dark at 30 or 37 ° C, depending on the strain, for 30 min with agitation (220 rpm). Afterward, MM- or DMSO-treated cells were dispensed in one well of a 24-well plate positioned in the center of the light beam (405 nm LED Light, Prizmatix, UHP—F-5-405) placed at the appropriate distance necessary to achieve the desired light intensity of 304 mW cm-2, 146 mW cm2 or 87 mW cm2, as measured with a handheld digital power meter console coupled to an S415C thermal power sensor head (Thorlabs, Newton, MA, USA). The temperature during irradiation was monitored using a thermocouple probe (Model SC-TT-K-30-36-PP; Omega Engineering, Inc., Stanford, CT, USA). Samples were agitated during irradiation. Dark controls were prepared as previously described except that no irradiation was provided. […]

As to `C[C@@H]1Cc2ccc3ccccc3c2/C1=C1\c2ccccc2Sc2cc(NCCN(C)C)ccc21` [MM 1, N^1N^1-dimethyl-N^2-(9-(2-methyl-2,3-dihydro-1H-cyclopenta[a]naphthalen-1-ylidene)-9H-thioxanthen-3-yl) ethane-1,2-diamine], the “type of interaction with conventional antifungals” value with C. albicans is listed as “synergized with all antifungals tested”. In addition, the FICI in the data set on C. albicans (MM 1 + ciclopirox) is given as 0.093; with C. albicans (MM 1 + fluconazole), 0.500; in the data set with C. albicans (MM 1 + voriconazole), 0.500. The “areal colocalization with FM 4-64” value in data set [1] was found to be 5.2%. Besides, the “areal colocalization with MitoTracker Green” value in data set [1] was 52.5%. In data set [2], the photodegradation result is on record as “does not cause detectable photodegradation of MMs”. Besides, in data set [3], the singlet oxygen generation entry was “lower than that of its slow, inert counterpart”. Besides, the superoxide dismutase activity entry with superoxide dismutase is “increased superoxide dismutase activity”.

With `C[C@@H]1Cc2ccc3ccccc3c2/C1=C1\c2ccccc2Sc2cc(NCCN)ccc21` (racemic) [MM 6, N^1-(9-(2-methyl-2,3-dihydro-1H-cyclopenta[a]naphthalen-1-ylidene)-9H-thioxanthen-3-yl)ethane-1,2-diamine], the MIC (in general, the lowest concentration found to suppress growth) with E. cloacae worked out at 10 µM.

For the origin of these results see patent publication US20260355318A1, “MOLECULAR MACHINES FOR TREATMENT OF CANCER, FUNGAL INFECTIONS, OR BACTERIAL INFECTIONS” (priority 2022, published 2026).
